# Laboratory results from publication PMC12019328, “Discovery of an ApoE4-targeted small-molecule SirT1 enhancer for the treatment of Alzheimer’s disease” (Scientific Reports, 2025).
# Assays:
# [1] = test system: PPP2r5e mRNA in Kelly cells; experiment: PPP2r5e mRNA in Kelly neuroblastoma cells; type: cell-based, human; conditions: 5 µM, 24 h, vs DMSO
# Experimental: Human neuroblastoma ‘Kelly’ cells (genotype APOE3/APOE4) were plated in 96-well plates at 50K cells per well and were grown overnight in RPMI 1640 supplemented with 2 mM Glutamine, 10% FBS and 1% Pen-Strep. Cells were treated with 5 µM DDL-214, -218, or -219; or DMSO vehicle (n = 8 per compound). Twenty-four hours later, medium was removed, cells washed and lysed as described above for N2a-E4 cells.
# (§1) Total RNA was isolated from cells or brain tissue (Qiagen RNEasy kit). Total RNA (0.5–1.0 µg) mRNA was then converted to cDNA (SuperScript™ III First-Strand Synthesis SuperMix kit; Thermo Fisher), and gene mRNA levels were measured using a gene-specific qRT-PCR Taqman assays (Thermo Fisher). Gene mRNA levels were normalized to GAPDH mRNA levels measured either in the same cDNA sample or in the same qPCR reaction using multiplexing of gene-of-interest/VIC and GAPDH/FAM, normalized by the delta-delta-Ct method.
# [2] = test system: PRMT5 mRNA; experiment: Hippocampal PRMT5 mRNA in ApoE4-TR:5xFAD mice; type: in vivo; conditions: 20 mg/Kg BID, 56 days, vs vehicle
# Experimental: The active (-) enantiomer, DDL-218, underwent efficacy testing in ApoE4-TR:5xFAD mice[27] that were 6-7.5 months old at the start of treatment. ApoE4-TR:5xFAD male and female mice received either 20 mg/Kg DDL-218 BID (~ 8- to10-hour interval; total daily dose of 40 mkd) on weekdays and a single 40 mg/Kg dose on weekends (n = 12) or vehicle-only (n = 11); 8 C57BL/6 mice received vehicle-only as behavioral controls. Dosing was by the oral route and by oral feeding using a pipette as previously described, not gavage, as it is safer for repeated oral dosing than gavage. The dose of 20 mg/kg BID (40 mkd) was selected based on findings from PK analysis and was the highest feasible in the formulation used for oral feeding (compound is first solubilized in water, then mixed strawberry syrup diluted in water, for a final vehicle that is 25% syrup and 75% water). […]
# as §1
# [3] = Kinetic solubility; type: physicochemical; conditions: aqueous buffer, kinetic from dmso stock, PBS pH 7.4, 37°C
# Experimental: supernatants were transferred to new tubes and lyophilized. Samples were reconstituted in 100 µL of 50/50/0.1 (Water/Acetonitrile/Formic Acid) prior to analysis via liquid chromatography-tandem mass spectrometry (LC-MS/MS).
# Normalized chromatographic peak areas was plotted at each time point and the half-life (T1/2) of compound in liver microsomes was determined by using the trendline equation to calculate the time at which compound abundance was 50% of that at timepoint 0 (T0).
# Kinetic solubility was assessed by separately diluting a test compound solution (10 mM, 100% DMSO) into the aqueous buffer (PBS pH 7.4) and DMSO at 100 μM, 100 μL total volume.
# The solutions were then incubated at 37°C for 90 min and centrifuged (16000xg, 5 min). An aliquot (50 µL) of each supernatant was analyzed by LC-MS/MS.
# Five standard concentrations (100, 10, 1, 0.1, and 0, DMSO) in duplicates were incubated at 37°C for 90 min and centrifuged (16000xg, 5 min). Aliquots (50 µL) of supernatant were analyzed by LC-MS/MS to create the standard curve.
# Table S2. DDL-218 Physiochemical Properties
# Kinetic solubility (μM) 64.4
# Brain Tissue Binding [fu,bound (%)] 43 […]
# [4] = biological target: hERG (human Ether-a-go-go-Related Gene) (Homo sapiens, UniProt Q12809); experiment: hERG
# Sequence of hERG (human Ether-a-go-go-Related Gene) (Q12809 whole entry): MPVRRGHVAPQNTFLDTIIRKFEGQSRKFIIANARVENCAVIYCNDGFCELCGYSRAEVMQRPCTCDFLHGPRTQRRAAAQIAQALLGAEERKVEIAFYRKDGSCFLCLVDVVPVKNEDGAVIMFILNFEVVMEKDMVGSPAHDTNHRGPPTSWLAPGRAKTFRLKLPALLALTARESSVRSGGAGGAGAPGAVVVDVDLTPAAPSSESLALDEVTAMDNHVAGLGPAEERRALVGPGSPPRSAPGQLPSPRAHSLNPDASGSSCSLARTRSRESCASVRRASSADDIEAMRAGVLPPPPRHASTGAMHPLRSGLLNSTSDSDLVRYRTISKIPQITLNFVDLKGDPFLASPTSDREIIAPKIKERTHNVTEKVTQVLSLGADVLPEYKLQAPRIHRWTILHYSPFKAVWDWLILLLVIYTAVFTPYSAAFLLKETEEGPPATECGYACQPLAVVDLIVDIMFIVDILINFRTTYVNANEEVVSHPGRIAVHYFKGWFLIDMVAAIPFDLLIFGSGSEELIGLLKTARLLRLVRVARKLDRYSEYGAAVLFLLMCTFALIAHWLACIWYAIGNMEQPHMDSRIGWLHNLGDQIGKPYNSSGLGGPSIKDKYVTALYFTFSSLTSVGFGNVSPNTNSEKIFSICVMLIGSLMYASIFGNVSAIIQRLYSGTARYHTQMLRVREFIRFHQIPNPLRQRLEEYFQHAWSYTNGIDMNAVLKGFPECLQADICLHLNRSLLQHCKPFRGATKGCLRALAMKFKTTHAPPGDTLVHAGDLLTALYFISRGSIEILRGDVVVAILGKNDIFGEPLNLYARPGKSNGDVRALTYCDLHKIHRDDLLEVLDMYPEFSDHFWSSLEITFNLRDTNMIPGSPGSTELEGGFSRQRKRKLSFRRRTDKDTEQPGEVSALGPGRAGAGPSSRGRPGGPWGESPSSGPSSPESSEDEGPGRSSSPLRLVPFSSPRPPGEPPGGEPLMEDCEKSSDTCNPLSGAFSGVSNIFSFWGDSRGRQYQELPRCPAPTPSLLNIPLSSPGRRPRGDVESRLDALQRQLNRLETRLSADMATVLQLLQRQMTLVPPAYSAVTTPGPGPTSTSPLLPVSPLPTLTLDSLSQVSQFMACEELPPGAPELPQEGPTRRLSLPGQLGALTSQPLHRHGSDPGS
compound,measurement,setting,value
CC(N)C(=O)OC(C)(C)Cc1ccncc1 (stereo not shown) [DDL-218],PPP2r5e mRNA,[1],significantly increased
same,hippocampal PRMT5 mRNA,[2],significantly increased
same,solubility kinetic at 90 min,[3],64.4 µM
same,EC50,[4],> 10 µM
